Entries after “also recorded” stand apart in the source; their conditions may differ.
Experiments:
[1] = cited from earlier work
Patients with vitiligo [2] = test: Follow-up for 6 months after stopping bimatoprost treatment: positive response and relapse; assay type: in vivo, human; details: for Response positive (at least 25% repigmentation), number of patients / Response positive, ratio to total number of patients: 6 months after stopping therapy; for Relapse/loss of pigment, number of patients / Relapse/loss of pigment, percentage of patients with positive response: 6 months following cessation of therapy
Excerpt: The hypothetical mechanism of repigmentation would be of increased melanogenesis in dermal melanocytes together with increased transfer of melanin granules to the basal melanocytes.

Patients with vitiligo [3] = test: Clinical efficacy of topical bimatoprost solution for treatment of vitiligo: degree of repigmentation; assay type: in vivo, human; details: for number of patients with Complete repigmentation (100%) / number of patients with Excellent repigmentation (75-99%) / number of patients with Marked repigmentation (50-74%) / number of patients with Moderate repigmentation (25-49%) / number of patients with Nil/mild repigmentation (less than 25%) / Repigmentation of body sites: number with Complete repigmentation (100%) / Repigmentation of body sites: number with Excellent repigmentation (75-99%) / Repigmentation of body sites: number with Marked repigmentation (50-74%) / Repigmentation of body sites: number with Moderate repigmentation (25-49%) / Repigmentation of body sites: number with Nil/mild repigmentation (less than 25%): 0.03% solution topically twice a day, 4 months
Method: 20 Patients with vitiligo were treated with topical bimatoprost solution for 4 months to elucidate its efficacy and tolerability in stable vitiligo. The solution contained bimatoprost in a concentration of 0.3 mg/mL (0.03%), benzalkonium chloride in a concentration of 0.05 mg/mL, and water. The solution has a pH of between 6.8 and 7.8, and contains sodium chloride, a dibasic sodium phosphate/citric acid buffer, and sodium hydroxide and/or hydrochloric acid to adjust the pH. The subjects had suffered from vitiligo for a period of between 8 and 80 months. The average period of depigmentation for the patients was 26.7 months. All the patients were examined by an independent observer. The percentage of repigmentation in form of color or size changes and folliculocentric/peripheral repigmentation were observed. […] Specifically, Nil/Mild repigmentation means that the skin has undergone less than 25% repigmentation, i.e., less than 25% of the skin surface has repigmented or, if repigmentation is observed, the skin has regained less than 25% of its natural color. Moderate repigmentation means that the skin has undergone 25-49% repigmentation, as measured by repigmented surface are and/or skin color. Marked repigmentation means that the skin has undergone 50-74% repigmentation, and excellent repigmentation means that the skin has undergone 75-99% repigmentation. Complete response means that repigmented skin lesions from vitiligo are indistinguishable from skin which has never been depigmented. The repigmentation effect of the composition starts rapidly within one to two months after starting the treatment. Topical treatment with bimatoprost is continued for a period of at least two months. If no response is observed to treatment with topical bimatoprost, treatment is stopped at the end of two months. If a mild or moderate response to treatment with topical bimatoprost is observed, therapy is continued for at least 4 months, while observing the patient for any further delayed improvement. In cases where complete or excellent response to topical bimatoprost is observed, treatment is stopped to determine whether relapse, i.e., whether loss of pigmentation is observed upon cessation of bimatoprost therapy. The frequency of application of the topical bimatoprost as an aqueous solution is twice a day.

Patients with vitiligo [4] = test: Tolerability / side effects during therapy with topical bimatoprost; assay type: in vivo, human
Method: 20 Patients with vitiligo were treated with topical bimatoprost solution for 4 months to elucidate its efficacy and tolerability in stable vitiligo. The solution contained bimatoprost in a concentration of 0.3 mg/mL (0.03%), benzalkonium chloride in a concentration of 0.05 mg/mL, and water. The solution has a pH of between 6.8 and 7.8, and contains sodium chloride, a dibasic sodium phosphate/citric acid buffer, and sodium hydroxide and/or hydrochloric acid to adjust the pH.
All the patients were examined by an independent observer. The percentage of repigmentation in form of color or size changes and folliculocentric/peripheral repigmentation were observed.

[5] = vitiliginous lesions on the face or neck
[6] = vitiliginous lesions on the trunk or extremities
[7] = site Mucosae (mucosal vitiligo or non-mucosal vitiligo progressed to mucosal surfaces)

## CCNC(=O)CCCC=CCC1C(O)CC(O)C1C=CC(O)CCc1ccccc1 (stereo not drawn) [bimatoprost, 7-[3,5-dihydroxy-2-(3-hydroxy-5-phenyl-pent-1-enyl)-cyclopentyl]-N-ethyl-hept-5-enamide]
[1]
  solubility in water: only slightly soluble; also recorded: very low
Patients with vitiligo [2]; Extremities, 4 patients
  Response positive (at least 25% repigmentation), number of patients: 2
  Response positive, ratio to total number of patients: 50%
Patients with vitiligo [2]; Extremities
  Relapse/loss of pigment, number of patients: 1
  Relapse/loss of pigment, percentage of patients with positive response: 50%
Patients with vitiligo [2]; Face and neck, 10 patients
  Response positive (at least 25% repigmentation), number of patients: 10
  Response positive, ratio to total number of patients: 100%
Patients with vitiligo [2]; Face and neck
  Relapse/loss of pigment, number of patients: 1
  Relapse/loss of pigment, percentage of patients with positive response: 10%
Patients with vitiligo [2]; Focal, 6 patients
  Response positive (at least 25% repigmentation), number of patients: 6
  Response positive, ratio to total number of patients: 100%
Patients with vitiligo [2]; Focal
  Relapse/loss of pigment, number of patients: 0
Patients with vitiligo [2]; Mucosal, 2 patients
  Response positive (at least 25% repigmentation), number of patients: 0
Patients with vitiligo [2]; Mucosal
  Relapse/loss of pigment, number of patients: 0
Patients with vitiligo [2]; Segmental, 4 patients
  Response positive (at least 25% repigmentation), number of patients: 4
  Response positive, ratio to total number of patients: 100%
Patients with vitiligo [2]; Segmental
  Relapse/loss of pigment, number of patients: 0
Patients with vitiligo [2]; Trunk, 6 patients
  Response positive (at least 25% repigmentation), number of patients: 4
  Response positive, ratio to total number of patients: 66%
Patients with vitiligo [2]; Trunk
  Relapse/loss of pigment, number of patients: 2
  Relapse/loss of pigment, percentage of patients with positive response: 50%
Patients with vitiligo [2]; Vulgaris, 8 patients
  Response positive (at least 25% repigmentation), number of patients: 4
  Response positive, ratio to total number of patients: 50%
Patients with vitiligo [2]; Vulgaris
  Relapse/loss of pigment, number of patients: 1
  Relapse/loss of pigment, percentage of patients with positive response: 25%
Patients with vitiligo [2]; focal or segmental vitiligo
  patients exhibiting a positive response 6 months after stopping therapy: 100%
  patients with positive response showing measurable depigmentation after 6 months: none
Patients with vitiligo [2]; generalized vitiligo (vitiligo vulgaris), eight patients
  patients exhibiting a positive response 6 months after stopping therapy: 50%
Patients with vitiligo [2]; generalized vitiligo (vitiligo vulgaris), of eight patients
  patients exhibiting a positive response 6 months after stopping therapy, number: four
Patients with vitiligo [2]; generalized vitiligo, of four responders
  patients with positive response showing measurable depigmentation after 6 months, number: one
Patients with vitiligo [2]; [5]
  patients exhibiting a positive response 6 months after stopping therapy: 100%
  patients with positive response showing measurable depigmentation after 6 months: none
Patients with vitiligo [2]; [6]
  patients exhibiting a positive response 6 months after stopping therapy: 60%
  patients with positive response showing measurable depigmentation after 6 months: 60%
Patients with vitiligo [3]; 20 patients
  complete clearance of vitiligo lesions (100% repigmentation), percentage of patients: 30%
  marked to excellent repigmentation (50-99%), percentage of patients: 55%
Patients with vitiligo [3]; 20 patients, all types of vitiligo
  patients in whom repigmentation was observed, percentage: 70%
Patients with vitiligo [3]; Focal vitiligo
  number of patients with Complete repigmentation (100%): 1
  number of patients with Excellent repigmentation (75-99%): 4
  number of patients with Marked repigmentation (50-74%): 1
  number of patients with Moderate repigmentation (25-49%): 0
  number of patients with Nil/mild repigmentation (less than 25%): 0
Patients with vitiligo [3]; Mucosal vitiligo
  number of patients with Complete repigmentation (100%): 0
  number of patients with Excellent repigmentation (75-99%): 0
  number of patients with Marked repigmentation (50-74%): 0
  number of patients with Moderate repigmentation (25-49%): 0
  number of patients with Nil/mild repigmentation (less than 25%): 2
Patients with vitiligo [3]; Segmental vitiligo
  number of patients with Complete repigmentation (100%): 1
  number of patients with Excellent repigmentation (75-99%): 2
  number of patients with Marked repigmentation (50-74%): 1
  number of patients with Moderate repigmentation (25-49%): 0
  number of patients with Nil/mild repigmentation (less than 25%): 0
Patients with vitiligo [3]; all patients
  mean onset of pigmentation after initiation of therapy: 2 months
Patients with vitiligo [3]; all patients treated
  patients treated with at least 50% repigmentation: 75%
Patients with vitiligo [3]; lesions on mucosal surfaces or on the extremities
  response of lesions, in words: respond poorly
Patients with vitiligo [3]; lesions on the face and neck
  vitiliginous lesions showing at least 50% repigmentation: all vitiliginous lesions
Patients with vitiligo [3]; lesions on the trunk
  vitiliginous lesions showing at least 50% repigmentation: 66%
Patients with vitiligo [3]; new patients (vitiligo for 6 months or less)
  repigmentation commencing after initiation of therapy: four to six
Patients with vitiligo [3]; out of 20 patients, all types of vitiligo
  patients in whom repigmentation was observed, number: 14
Patients with vitiligo [3]; remaining patients with generalized vitiligo
  repigmentation, in words: little or no repigmentation
Patients with vitiligo [3]; segmental or focal vitiligo
  patients exhibiting at least 50% repigmentation (at least marked): all patients
Patients with vitiligo [3]; site Extremities
  Repigmentation of body sites: number with Complete repigmentation (100%): 0
  Repigmentation of body sites: number with Excellent repigmentation (75-99%): 0
  Repigmentation of body sites: number with Marked repigmentation (50-74%): 0
  Repigmentation of body sites: number with Moderate repigmentation (25-49%): 2
  Repigmentation of body sites: number with Nil/mild repigmentation (less than 25%): 2
Patients with vitiligo [3]; site Head & neck
  Repigmentation of body sites: number with Complete repigmentation (100%): 4
  Repigmentation of body sites: number with Excellent repigmentation (75-99%): 4
  Repigmentation of body sites: number with Marked repigmentation (50-74%): 2
  Repigmentation of body sites: number with Moderate repigmentation (25-49%): 0
  Repigmentation of body sites: number with Nil/mild repigmentation (less than 25%): 0
Patients with vitiligo [3]; [7]
  Repigmentation of body sites: number with Complete repigmentation (100%): 0
  Repigmentation of body sites: number with Excellent repigmentation (75-99%): 0
  Repigmentation of body sites: number with Marked repigmentation (50-74%): 0
  Repigmentation of body sites: number with Moderate repigmentation (25-49%): 2
  Repigmentation of body sites: number with Nil/mild repigmentation (less than 25%): 2
Patients with vitiligo [3]; site Trunk
  Repigmentation of body sites: number with Complete repigmentation (100%): 0
  Repigmentation of body sites: number with Excellent repigmentation (75-99%): 2
  Repigmentation of body sites: number with Marked repigmentation (50-74%): 2
  Repigmentation of body sites: number with Moderate repigmentation (25-49%): 0
  Repigmentation of body sites: number with Nil/mild repigmentation (less than 25%): 2
Patients with vitiligo [3]; topical, twice a day
  start of the repigmentation effect after starting the treatment: one to two
Patients with vitiligo [3]; vitiligo Vulgaris
  number of patients with Complete repigmentation (100%): 2
  number of patients with Excellent repigmentation (75-99%): 2
  number of patients with Marked repigmentation (50-74%): 1
  number of patients with Moderate repigmentation (25-49%): 0
  number of patients with Nil/mild repigmentation (less than 25%): 3
Patients with vitiligo [3]; vitiligo restricted to the mucosal surfaces or to the extremities
  repigmentation, in words: little or no repigmentation
Patients with vitiligo [3]; vitiligo vulgaris (generalized vitiligo)
  patients exhibiting at least 50% repigmentation (at least marked): More than 60%
Patients with vitiligo [4]; 20 patients, 0.03% solution topically, 4 months
  severe adverse reactions during the trial: No severe adverse reactions
Patients with vitiligo [4]; after application, especially on the lips
  most commonly observed side effect: transient burning sensation
Patients with vitiligo [4]; topical, 20 patients
  incidence of side-effects during therapy: 20%
  severity of side effects: mild
